The values below come from US20100069340A1, “PHARMACEUTICAL COMPOSITIONS OF AN SRC KINASE INHIBITOR AND AN AROMATASE INHIBITOR” (Wyeth, priority 2008, published 2010).

Like-named read-outs stand apart in the source and are kept apart here.

Common to all, as to format: cell-based
For one test, the system named is BT-20 (ER neg). Nature of the test: Cell proliferation assay (CellTiter Glo), BT-20. The note with it: for IC50: Homo sapiens, BT-20, 168 h, 7 Day assay, charcoal stripped serum, no phenol red, plateau cell number at 5 μM used. Here is the method:
(§1) Cell lines were obtained from ATCC. Estrogen was obtained from SIGMA, 4-hydroxytamoxifen was obtained from SIGMA, Bosutinib was used for these studies. Charcoal-stripped serum and phenol red-free medium was obtained from Invitrogen. CellTiter Glo was obtained from Promega.
(§2) Cell cultures. Proliferation assays with cells in complete fetal calf serum were performed with medium containing phenol red. For all assays examining estrogen-dependence, cells were cultured in phenol red-free medium; DMEM/F12 (MCF7), RPMI1640 (MDA-MB-361, T47D) MEM (BT20, MDA-MB-231) McCoys5A modified (SKBR3), Leibowitz' L15 medium supplemented with 10 ng/mL insulin (MDA-MB-435 and MDA-MB-468) with 10% fetal bovine serum supplemented with glutamine and gentamicin. For proliferation assays, trypsinized cells were subjected to three cycles of centrifugation and resuspension in phenol red-free medium supplemented with charcoal stripped medium (5% final), glutamine and Pen/Strep. Cells were plated on day 0, with or without estrogen (10 nM final concentration). On day 1, 4-hydroxytamoxifen and SKI-606 or DMSO were added as a serial dilution. Cells were incubated for 7 days, after which CellTiter Glo (Promega) was added as recommended by the manufacturer. After mixing and two hours incubation on the bench, plates were read on an Envision reader. […] The 10 uM data point was dropped for these two lines since there was a clear plateau prior to the sharp drop in luminescence observed at 10 uM compound. The IC50 was calculated using a floating minima corresponding to the lowest luminescence value at 5 uM.
Cell proliferation assays were performed in two formats; a three day proliferation assay in fully supplemented medium with phenol red, and a 7 day proliferation assay in phenol red free medium supplemented with charcoal-stripped medium. […] ER positive T47D cells were slightly more sensitive to SKI-606 in the presence of estrogen. BT20 cells were equally sensitive to SKI-606 in stripped serum medium, regardless of whether estrogen was present. […]
For orientation: In ATP-based viability assays light output follows the ATP content of the culture.

The test system of another test is MCF7. Kind of test: Cell proliferation assay (CellTiter Glo), MCF7. The note with it: for IC50: Homo sapiens. On the procedure: as §1, §2
Cell proliferation assays were performed in two formats; a three day proliferation assay in fully supplemented medium with phenol red, and a 7 day proliferation assay in phenol red free medium supplemented with charcoal-stripped medium. […] ER positive T47D cells were slightly more sensitive to SKI-606 in the presence of estrogen. BT20 cells were equally sensitive to SKI-606 in stripped serum medium, regardless of whether estrogen was present.
Proliferation data for SKI-606 in various breast tumor lines in complete medium (10% FCS) and charcoal stripped serum with no phenol red (no E2, E2) with and without 10 nM estrogen. The complete medium data were obtained in 3-day assays, while stripped serum assays were extended for 7 days with one change of medium at day 5. The IC50 values for the BT20 line was calculated using the “plateau” cell number evident at 5 μM SKI-606.

In another test the test system is SKBR3 (ER neg). Nature of the test: Cell proliferation assay (CellTiter Glo), SKBR3. The note with it: Homo sapiens. On the procedure: as §1
as §2, with “The” for “The 10 uM data point was dropped for these two lines since there was a clear plateau prior to the sharp drop in luminescence observed at 10 uM compound. The”
Cell proliferation assays were performed in two formats; a three day proliferation assay in fully supplemented medium with phenol red, and a 7 day proliferation assay in phenol red free medium supplemented with charcoal-stripped medium.
The complete medium data were obtained in 3-day assays, while stripped serum assays were extended for 7 days with one change of medium at day 5.

A further test concerns T47D. Nature of the test: Cell proliferation assay (CellTiter Glo), T47D. The note with it: Homo sapiens, 168 h, 7 Day assay, charcoal stripped serum, no phenol red. On the procedure:
as §1
as §2, with “Cells were incubated for 7 days, after which CellTiter Glo (Promega) was added as recommended by the manufacturer.” left out, “The IC50 was calculated using a floating minima corresponding to the lowest luminescence value at 5 uM.” left out

For another test, the system named is ER. Nature of the test: ER signaling in MCF-7 cells (ERE-tk-luciferase, ERα levels). Here is the method: Radis Procedure 2484, MCF-7 model was used for the measurement of in vitro estrogenic activity. MCF-7 cells were passaged twice a week in D-MEM/F-12 medium containing 10% (v/v) heat-inactivated fetal bovine serum, 1% (v/v) Penicillin-Streptomycin, and 2 mM glutaMax-1. The cells were plated with growth medium at 25,000/well into 96 well plates and incubated at 37° C. overnight.
The cells were infected for 2 hr at 37° C. with 50 μl/well of a 1:10 dilution of adenovirus 5-ERE-tk-luciferase in phenol red-free D-MEM/F-12 medium containing 10% (v/v) heat-inactived charcoal-stripped fetal bovine serum, 1% (v/v) Penicillin-Streptomycin, 2 mM glutaMax-1, 1 mM sodium pyruvate. The wells are then washed once with 150 μl of experimental medium. Finally, the cells are treated for 24 hr at 37° C. in replicates of 8 wells/treatment with 150 μl/well of vehicle (<0.1% v/v DMSO) or compound that is diluted >1000-fold into experimental medium. SKI-606 was tested in a dose response assay in the presence of 0.1 nM 17β-estradiol to stimulate ERE-luc.
After treatment, the cells are lysed on a shaker for 15 min with 25 μl/well of 1× cell culture lysis reagent (Promega Corporation). The cell lysates (20 μl) were transferred to a 96 well luminometer plate, and luciferase activity were measured in a MicroLumat LB 96 P luminometer (EG & G Berthold) using 100 μl/well of luciferase substrate (Promega Corporation). […]

Where [1] appears, read: 10 nM estrogen, read-out: IC50 (uM) E2.
The mark [2] stands for this setting: without estrogen, read-out: IC50 (uM) no E2.

As a reminder, the IC50 is the midpoint of a concentration-inhibition curve. For the compound `COc1cc(Nc2c(C#N)cnc3cc(OCCCN4CCN(C)CC4)c(OC)cc23)c(Cl)cc1Cl` [bosutinib], the “toxicity at maximal concentration” value with BT-20 (ER neg) (10 uM SKI-606, BT20 cells) is given as “some toxicity was seen”. In addition, the IC50 in the test on BT-20 (ER neg) (setting [1]) was found to be 0.24 µM; in the test on BT-20 (ER neg) (setting [2]), 0.28 µM; in the test on MCF7 (MCF7, 72 h, 3 Day assay, complete medium (10% FCS), read-out: IC50 (uM) 10% FCS) it was 6.5 µM; in the test with MCF7 (MCF7, 168 h, 7 Day assay, charcoal stripped serum, no phenol red, 10 nM estrogen, read-out: IC50 (uM) E2), 0.86 µM; with MCF7 (MCF7, 168 h, 7 Day assay, charcoal stripped serum, no phenol red, without estrogen, cells did not grow well, data less reliable, read-out: IC50 (uM) no E2), 0.08 µM; in the test with SKBR3 (ER neg) (SK-BR-3, 72 h, 3 Day assay, complete medium (10% FCS), read-out: IC50 (uM) 10% FCS) it was 1.5 µM. Besides, the IC50 turned out to be 1.38 µM with SKBR3 (ER neg) (SK-BR-3, 168 h, 7 Day assay, charcoal stripped serum, no phenol red, 10 nM estrogen, read-out: IC50 (uM) E2); 1.43 µM with SKBR3 (ER neg) (SK-BR-3, 168 h, 7 Day assay, charcoal stripped serum, no phenol red, without estrogen, read-out: IC50 (uM) no E2); 1.28 µM in the test with T47D (setting [1]); 2.85 µM with T47D (setting [2]). For the same compound, the “effect on estrogen-dependent and estrogen-independent growth” value in the test with MCF7 (MCF7) was “inhibited estrogen-dependent and estrogen-independent growth”. Moreover, the “genomic and non-genomic signaling by ER” value in the test on ER is “inhibits both genomic and non-genomic signaling by ER”.
